In brackets after ≈: the same amount, converted by molar mass.

Holding throughout (assay type): cell-based
The test system of test [1] is S. aureus. The experiment in a line: in vitro agar Petri dish dilution test, Sa. The settings on record: Staphylococcus aureus, 100% inhibition. An excerpt: (§1) The compounds of this invention have antimicrobial utility. In conventional in vitro agar Petri dish dilution tests, the following compounds and some corresponding art compounds gave 100% inhibition of the following organisms at the indicated concentrations in parts per million.

The test system of a further test is E. coli. Put plainly: in vitro agar Petri dish dilution test, Ec. The settings on record: Escherichia coli, 100% inhibition.
From the text: as §1

Another test concerns C. albicans. The experiment in a line: in vitro agar Petri dish dilution test, Ca. The settings on record: Candida albicans, 100% inhibition.
From the text: as §1

The test system of the next test is T. mentagrophytes. The experiment in a line: in vitro agar Petri dish dilution test, Tm. The settings on record: Trichophyton mentagrophytes, 100% inhibition.
From the text: as §1
Tm = T. mentagrophytes -

The next test deals with A. niger. Put plainly: in vitro agar Petri dish dilution test, An. The settings on record: Aspergillus niger, 100% inhibition.
From the text: as §1

The subject of test [2] is B. subtilis. Put plainly: in vitro agar Petri dish dilution test, Bs. The settings on record: Bacillus subtilis, 100% inhibition.
From the text: as §1

The next test relates to A. aerogenes. The experiment in a line: in vitro agar Petri dish dilution test, Aa. The settings on record: Klebsiella aerogenes, 100% inhibition.
From the text: as §1

The subject of test [3] is C. pelliculosa. The experiment in a line: in vitro agar Petri dish dilution test, Cp. The settings on record: Hansenula anomala, 100% inhibition.
From the text: as §1

A further test deals with P. pullulans. Put plainly: in vitro agar Petri dish dilution test, Pp. The settings on record: 100% inhibition.
From the text: as §1

For a further test, the system named is S. typhosa. Put plainly: in vitro agar Petri dish dilution test, St. The settings on record: for MIC: 100% inhibition.
From the text: as §1

In test [4] the test system is Pseudomonas Sp. Strain 10. Put plainly: in vitro agar Petri dish dilution test, Ps 10. The settings on record: 100% inhibition.
From the text: as §1
Ps 10 = Pseudomonas Sp. Strain 10

The next test has as its system M. phlei. Put plainly: in vitro agar Petri dish dilution test, Mp. The settings on record: Mycolicibacterium phlei, 100% inhibition.
From the text: as §1

The next test has as its system R. nigricans. Put plainly: in vitro agar Petri dish dilution test, Rn. The settings on record: Rhizopus stolonifer, 100% inhibition.
From the text: as §1

A further test concerns C. IPS. Put plainly: in vitro agar Petri dish dilution test, CI. The settings on record: 100% inhibition.
From the text: as §1

A further test concerns T. Sp. Madison P42. The experiment in a line: in vitro agar Petri dish dilution test, Tr 42. The settings on record: 100% inhibition.
From the text: as §1
Tr 42 = T. Sp. Madison P42

Test [5] relates to S. aureus. Put plainly: in vitro agar Petri dish dilution test, Sa. The settings on record: Staphylococcus aureus.
Test [6] deals with B. subtilis. Put plainly: in vitro agar Petri dish dilution test, Bs. The settings on record: Bacillus subtilis.
Test [7] has as its system C. pelliculosa. The experiment in a line: in vitro agar Petri dish dilution test, Cp. The settings on record: Hansenula anomala.

For `O=S(=O)(Cl)c1cccs1` [H, 2-thiophenesulfonyl chloride, reference compound], the MIC in the test with S. aureus [1], with E. coli, against C. albicans, in the test on T. mentagrophytes, with A. niger and against B. subtilis [2] was more than 500 µg/mL in each case. The MIC is more than 500 µg/mL against A. aerogenes; more than 500 µg/mL against C. pelliculosa [3]; more than 500 µg/mL with P. pullulans; more than 500 µg/mL against S. typhosa; more than 500 µg/mL in test [4]; 500 µg/mL against M. phlei. For the same compound, the MIC against R. nigricans, in the test with C. IPS and in the test with T. Sp. Madison P42 was more than 500 µg/mL in each case.

In the case of `O=S(=O)(Br)c1cc(Br)c(Br)s1` [4,5-Br2], the MIC was found to be 50 µg/mL (≈ 130 µM) against S. aureus [1]; 100 µg/mL (≈ 260 µM) with C. albicans; 100 µg/mL (≈ 260 µM) in the test on T. mentagrophytes; 100 µg/mL (≈ 260 µM) in the test on A. niger; 50 µg/mL (≈ 130 µM) in the test with B. subtilis [2]; 100 µg/mL (≈ 260 µM) with A. aerogenes. For the same compound, the MIC in the test with C. pelliculosa [3] was 100 µg/mL (≈ 260 µM); against P. pullulans, 100 µg/mL (≈ 260 µM); against S. typhosa it was 50 µg/mL (≈ 130 µM); in test [4], 50 µg/mL (≈ 130 µM); against T. Sp. Madison P42 it was 100 µg/mL (≈ 260 µM).

In the case of `O=S(=O)(Br)c1ccc(Cl)s1` [5-Cl, 5-Chloro-2-thiophenesulfonyl Bromide], the MIC against S. aureus [1] turned out to be 500 µg/mL; in the test on E. coli it was 100 µg/mL; in the test on C. albicans it was 100 µg/mL; against T. mentagrophytes it was 100 µg/mL; in the test with A. niger, 100 µg/mL; with B. subtilis [2], 500 µg/mL. Also, the MIC is 500 µg/mL with A. aerogenes; 100 µg/mL against C. pelliculosa [3]; 100 µg/mL against P. pullulans; 500 µg/mL in test [4]; 500 µg/mL in the test with M. phlei; 100 µg/mL against R. nigricans. In the test with T. Sp. Madison P42, this compound yielded an MIC of 100 µg/mL.

As to `Cc1ccc(S(=O)(=O)Br)s1` [5-CH3], the minimum inhibitory concentration (MIC) against S. aureus [1] was 100 µg/mL (≈ 415 µM); in the test on C. albicans, more than 100 µg/mL; with T. mentagrophytes, more than 100 µg/mL; in the test with A. niger, more than 100 µg/mL; in the test with B. subtilis [2], more than 100 µg/mL; in the test with A. aerogenes it was more than 100 µg/mL. The MIC in the test on C. pelliculosa [3] was more than 100 µg/mL; in the test on P. pullulans, more than 100 µg/mL; in the test on S. typhosa, 50 µg/mL (≈ 207 µM); in [4], 50 µg/mL (≈ 207 µM); in the test with C. IPS, more than 100 µg/mL; in the test with T. Sp. Madison P42, more than 100 µg/mL.

Turning to `O=S(=O)(Cl)c1sc(Br)cc1Br` [3,5-Br2, reference compound], the MIC against S. aureus [1], in the test with C. albicans, against T. mentagrophytes, against A. niger, with B. subtilis [2] and against A. aerogenes was more than 100 µg/mL each time. Moreover, the MIC (in the test with C. pelliculosa [3]; against P. pullulans; with S. typhosa; in test [4]; against C. IPS; in the test with T. Sp. Madison P42) was more than 100 µg/mL in each case.

Take `O=S(=O)(Cl)c1sc(Br)c(Br)c1Br` [3,4,5-Br3, reference compound]: the MIC with S. aureus [1], against C. albicans, in the test on T. mentagrophytes, against A. niger, in the test on B. subtilis [2] and in the test with A. aerogenes was more than 100 µg/mL each time. The compound also returned an MIC with C. pelliculosa [3] of more than 100 µg/mL.

For the compound `O=S(=O)(Br)c1sc(Br)c(Br)c1Br` [3,4,5-Br3], the MIC in the test on S. aureus [1] is 50 µg/mL (≈ 108 µM); against C. albicans it was 100 µg/mL (≈ 216 µM); with T. mentagrophytes, 50 µg/mL (≈ 108 µM); with A. niger, 50 µg/mL (≈ 108 µM); with B. subtilis [2] it was 50 µg/mL (≈ 108 µM); in the test with A. aerogenes it was more than 100 µg/mL. In addition, the MIC (with C. pelliculosa [3]; in the test on P. pullulans; in test [4]; against T. Sp. Madison P42) was 50 µg/mL (≈ 108 µM) each time.

As to `O=S(=O)(Cl)c1cc(Br)c(Br)s1` [4,5-Br2, reference compound], the MIC is more than 100 µg/mL in the test on S. aureus [1]; more than 100 µg/mL in the test on C. albicans; 100 µg/mL (≈ 294 µM) with T. mentagrophytes; more than 100 µg/mL against A. niger; more than 100 µg/mL against B. subtilis [2]; more than 100 µg/mL in the test on A. aerogenes. This compound displayed an MIC in the test on C. pelliculosa [3] of 100 µg/mL (≈ 294 µM).

`CCCCc1ccc(S(=O)(=O)Cl)s1` [5-butyl, reference compound]: the MIC was more than 500 µg/mL with E. coli; more than 500 µg/mL against C. albicans; 500 µg/mL (≈ 2090 µM) in the test on T. mentagrophytes; more than 500 µg/mL against A. niger; more than 500 µg/mL against A. aerogenes; more than 500 µg/mL against P. pullulans. The compound also gave an MIC against S. typhosa of more than 500 µg/mL. In addition, the inhibition at 500 ppm in the test with S. aureus [5], with B. subtilis [6] and in the test on C. pelliculosa [7] was 50% throughout.

Take `CCCCc1ccc(S(=O)(=O)Br)s1` [5-butyl]: the MIC was found to be 500 µg/mL (≈ 1770 µM) in the test with S. aureus [1]; 500 µg/mL (≈ 1770 µM) against E. coli; 500 µg/mL (≈ 1770 µM) with C. albicans; 100 µg/mL (≈ 353 µM) in the test with T. mentagrophytes; 100 µg/mL (≈ 353 µM) against A. niger; 100 µg/mL (≈ 353 µM) against B. subtilis [2]. For the same compound, the MIC in the test with A. aerogenes came out at 500 µg/mL (≈ 1770 µM); in the test on C. pelliculosa [3], 100 µg/mL (≈ 353 µM); against P. pullulans, 100 µg/mL (≈ 353 µM); in test [4], 500 µg/mL (≈ 1770 µM); in the test with R. nigricans, 100 µg/mL (≈ 353 µM); in the test with T. Sp. Madison P42 it was 100 µg/mL (≈ 353 µM).

In the case of `O=S(=O)(Br)c1ccc(Br)s1` [5-Br, 5-Bromo-2-thiophenesulfonyl Bromide], the MIC against S. aureus [1] was 500 µg/mL; in the test on E. coli, 500 µg/mL; with C. albicans, 100 µg/mL; in the test on T. mentagrophytes, 100 µg/mL; against A. niger, 100 µg/mL; in the test on B. subtilis [2], 100 µg/mL. Also, the MIC against A. aerogenes is 500 µg/mL; against C. pelliculosa [3], 100 µg/mL; against P. pullulans it was 100 µg/mL; in test [4] it was 100 µg/mL; against M. phlei, 500 µg/mL; with R. nigricans, 100 µg/mL. This compound also returned an MIC with T. Sp. Madison P42 of 100 µg/mL.

For `CCc1ccc(S(=O)(=O)Br)s1` [5-C2 H5], the minimal inhibitory concentration (MIC) stood at 500 µg/mL (≈ 1960 µM) against S. aureus [1]; 500 µg/mL (≈ 1960 µM) with E. coli; 500 µg/mL (≈ 1960 µM) with C. albicans; 100 µg/mL (≈ 392 µM) in the test with T. mentagrophytes; 100 µg/mL (≈ 392 µM) against A. niger; 100 µg/mL (≈ 392 µM) with B. subtilis [2]. The MIC with A. aerogenes came to 500 µg/mL (≈ 1960 µM); against C. pelliculosa [3], 100 µg/mL (≈ 392 µM); against P. pullulans it was 100 µg/mL (≈ 392 µM); in test [4] it was 100 µg/mL (≈ 392 µM); in the test with R. nigricans, 100 µg/mL (≈ 392 µM); in the test on T. Sp. Madison P42, 100 µg/mL (≈ 392 µM).

`O=S(=O)(Br)c1cccs1` [H, 2-Thiophenesulfonyl Bromide]: the MIC against S. aureus [1] is 500 µg/mL; against E. coli, 100 µg/mL; in the test with C. albicans, 100 µg/mL; in the test on T. mentagrophytes, 100 µg/mL; against A. niger it was 100 µg/mL; in the test on B. subtilis [2], 100 µg/mL. The MIC (against A. aerogenes; in the test on C. pelliculosa [3]; against P. pullulans; in test [4]; in the test on M. phlei; in the test on R. nigricans) was 100 µg/mL in each case. In the test with T. Sp. Madison P42, the MIC was 100 µg/mL.

For the compound `Cc1ccc(S(=O)(=O)Cl)s1` [5-CH3], in the test on S. typhosa, the inhibition at 500 ppm turned out to be 50%.

As for `O=S(=O)(Br)c1sc(Br)cc1Br` [3,5-Br2], the MIC against S. aureus [1] is 50 µg/mL (≈ 130 µM); against C. albicans, 100 µg/mL (≈ 260 µM); with T. mentagrophytes it was 50 µg/mL (≈ 130 µM); against B. subtilis [2], 50 µg/mL (≈ 130 µM); in the test with A. aerogenes, 50 µg/mL (≈ 130 µM); in the test with C. pelliculosa [3], 50 µg/mL (≈ 130 µM). For the same compound, the MIC was 100 µg/mL (≈ 260 µM) in the test with P. pullulans, 50 µg/mL (≈ 130 µM) against S. typhosa, 50 µg/mL (≈ 130 µM) in test [4] and 100 µg/mL (≈ 260 µM) against T. Sp. Madison P42.

Take `CCc1ccc(S(=O)(=O)Cl)s1` [5-C2 H5]: in the test on S. typhosa, the inhibition at 500 ppm was 50%.

For orientation: MIC means the smallest concentration in the dilution series that meets the test's criterion for growth inhibition. Lower therefore signals a more susceptible organism. What is called inhibition is the relative decrease from the control value, in per cent.

These data come from patent US4264774A, “2-Thiophenesulfonyl bromides” (The Dow Chemical Company, priority 1976, dated 1981).
